Test: Chromatographic lipophilicity overall (HPTLC and HPLC systems), structure-retention comparison and PCA
Format: physicochemical
Conditions: for lipophilicity by heterocyclic substituent (chromatographic parameters, in words): Tables S1–S7, all chromatographic systems; for lipophilicity by first principal component score (average value of lipophilicity, in words): PCA of experimental and computational data, PC1
Description: Chromatographic studies were carried out using both HPTLC and HPLC methods under the isocratic conditions. In all systems, there were stated linear relationships between the RM (HPTLC) or log kw (HPLC) values and the organic modifier content (ϕ) in the mobile phase. This is described by the Soczewinski–Wachtmeister equation [31] as follows:RM = RMw + bϕ(1) log k = log kw + bϕ(2) where ϕ expresses the volume fraction of the organic solvent in the mobile phase; RMw (log kw) corresponds to 0% of the organic solvent content in the mobile phase; b represents the slope of a regression line.
The retention behavior of the compounds was analyzed by HPTLC using the octyl C8 and octadecyl C18 stationary phases and MeOH, ACN, acetone, and dioxane as organic modifiers (Supplementary Materials Tables S1–S4). The chromatographic evaluation of using the HPLC methods was made in the systems, with C8/MeOH, C8/ACN, and C18/ACN analogous to HPTLC (Tables S5 and S7). The measurements using the IAM and Chol stationary phases and the buffered mobile phases (pH = 7.4) were additionally used (Supplementary Materials Tables S5–S7).
The lipophilicity parameters for the Et derivatives were usually higher than those for chlorine ones (1 and 2; 7 and 8). This was an expected effect, taking into account the hydrophobicity parameter π (Hansch–Fujita π constant) for these substituents. Deviations from this order were sometimes observed. […] (Supplementary Materials Tables S1–S7).
To investigate the similarity between the investigated compounds, the obtained experimental and computational data were analyzed using scaled principal component analysis.
The most important conclusion from the PCA analysis is that all coefficients, both computational and experimental ones, were highly redundant. In total, 85% of the information was common for them and could be collected together to form the first principal component. The score could be interpreted as an average value of lipophilicity.

Oc1ccc(-c2nnc(-c3ccc4nonc4c3)s2)c(O)c1 [Compound 6]
lipophilicity by heterocyclic substituent (chromatographic parameters, in words): low lipophilicity

Oc1ccc(-c2nnc(-c3ccn4c(Br)cnc4c3)s2)c(O)c1 [Compound 9]
lipophilicity by first principal component score (average value of lipophilicity, in words): lowest lipophilicity

Oc1cc(O)c(-c2nnc(-c3ccco3)s2)cc1Cl [Compound 1]
lipophilicity by heterocyclic substituent (chromatographic parameters, in words): low lipophilicity

CCc1cc(-c2nnc(-c3cc4cc(Br)ccc4n3C)s2)c(O)cc1O [Compound 5]
lipophilicity by first principal component score (average value of lipophilicity, in words): highest lipophilicity

Oc1ccc(-c2nnc(-c3ccc(N4CCOCC4)nc3)s2)c(O)c1 [Compound 13]
lipophilicity by heterocyclic substituent (chromatographic parameters, in words): lowest lipophilicity

Reference: PMC11173846, “Comparison of HPLC, HPTLC, and In Silico Lipophilicity Parameters Determined for 5-Heterocyclic 2-(2,4-Dihydroxyphenyl)-1,3,4-thiadiazoles” (Molecules, 2024)
